Experiment [1] concerns the target T1, Vitamin D3 receptor (Sus scrofa) (UniProt A3RGC1).
T1 sequence (whole entry): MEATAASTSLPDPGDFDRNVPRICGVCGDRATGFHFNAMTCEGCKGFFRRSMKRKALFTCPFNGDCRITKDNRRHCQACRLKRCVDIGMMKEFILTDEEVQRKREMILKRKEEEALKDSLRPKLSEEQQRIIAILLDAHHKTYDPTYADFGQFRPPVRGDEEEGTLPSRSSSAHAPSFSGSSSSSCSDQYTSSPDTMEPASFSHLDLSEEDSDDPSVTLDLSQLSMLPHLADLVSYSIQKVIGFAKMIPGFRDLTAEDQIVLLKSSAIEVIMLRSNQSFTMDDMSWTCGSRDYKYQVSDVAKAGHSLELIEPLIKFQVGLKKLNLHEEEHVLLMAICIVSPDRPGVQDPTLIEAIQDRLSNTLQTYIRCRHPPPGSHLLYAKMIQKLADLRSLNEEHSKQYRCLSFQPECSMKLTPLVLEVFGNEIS
Kind of experiment: Inhibition of [3H]1-alpha,25-dihydroxy-vitamin D3 binding to porcine intestinal mucosal vitamin D receptor.

The next experiment relates to HL-60. Put plainly: Percent activity for its capability to induce differentiation of human promyeloid leukemia HL-60 cells. Type of experiment: functional. Further details: concentration or dose not given beside the values.

In experiment [1], `C=C1/C(=C\C=C2/CCC[C@]3(C)[C@@H]([C@H](C)/C=C/[C@@H](O)[C@@]4(C)CO4)CC[C@@H]23)C[C@@H](O)C[C@@H]1O` yielded a Receptor binding of 8. Moreover, in the experiment on HL-60, the Activity was determined as 30%.

Take `C=C1/C(=C\C=C2/CCC[C@]3(C)[C@@H]([C@H](C)CC[C@H](O)[C@@]4(C)CO4)CC[C@@H]23)C[C@@H](O)C[C@@H]1O`: the Receptor binding in experiment [1] stood at 1. Moreover, in the experiment with HL-60, the Activity turned out to be 44%.

In experiment [1], `C=C1/C(=C\C=C2/CCC[C@]3(C)[C@@H]([C@H](C)CCCC4(C)CO4)CC[C@@H]23)C[C@@H](O)C[C@@H]1O` (some centres undefined) registered a Receptor binding of 27. In the experiment on HL-60, the Activity is 37%.

`C=C1/C(=C\C=C2/CCC[C@]3(C)[C@@H]([C@H](C)CC[C@@H](O)[C@@]4(C)CO4)CC[C@@H]23)C[C@@H](O)C[C@@H]1O` came in with a Receptor binding in experiment [1] of 20. The molecule also registered an Activity in the experiment on HL-60 of 12%.

`C=C1/C(=C\C=C2/CCC[C@]3(C)[C@@H]([C@H](C)/C=C/[C@H](O)[C@]4(C)CO4)CC[C@@H]23)C[C@@H](O)C[C@@H]1O` came in with a Receptor binding in experiment [1] of 8. Moreover, the Activity in the experiment on HL-60 is 30%.

`C=C1/C(=C\C=C2/CCC[C@]3(C)[C@@H]([C@H](C)CC[C@H](O)[C@]4(C)CO4)CC[C@@H]23)C[C@@H](O)C[C@@H]1O`: the Receptor binding in experiment [1] was 5. In the experiment on HL-60, this molecule returned an Activity of 7%.

The molecule `C=C1/C(=C\C=C2/CCC[C@]3(C)[C@@H]([C@H](C)CC[C@@H](O)[C@]4(C)CO4)CC[C@@H]23)C[C@@H](O)C[C@@H]1O` came in with a Receptor binding in experiment [1] of 9. Also, the Activity in the experiment with HL-60 is 33%.

These data come from ChEMBL document CHEMBL1126968, “Synthesis and biological evaluation of some 25,26-epoxy-1,24-dihydroxyvitamin D3 analogues” (1993).
